Patent US20250313548A1 (Actio Biosciences, Inc., priority 2023, published 2025)

Molecular target: human, KCNT1 (Homo sapiens (Human), UniProt Q5JUK3)
Assay: FLIPR Tl/K Flux Assay
Type: cell-based
Settings: HEK293 cells stably expressing human KCNT1; Tl+ flux stimulated with EC80 of agonist Loxapine
Summary of the method: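 Inhibition values come from a Hill-equation fit of % inhibition versus log concentration, using normalized fluorescence (Fmax/Fmin) over a 160 s read. The read followed stimulation with Tl+ plus EC80 agonist loxapine after 30 min compound pre-incubation at 25 °C. Cells were KCNT1-expressing HEK293, dye-loaded 1 h in pH 7.4 HEPES/HBSS with 5 mM probenecid.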

human, KCNT1, sequence (Q5JUK3 whole entry): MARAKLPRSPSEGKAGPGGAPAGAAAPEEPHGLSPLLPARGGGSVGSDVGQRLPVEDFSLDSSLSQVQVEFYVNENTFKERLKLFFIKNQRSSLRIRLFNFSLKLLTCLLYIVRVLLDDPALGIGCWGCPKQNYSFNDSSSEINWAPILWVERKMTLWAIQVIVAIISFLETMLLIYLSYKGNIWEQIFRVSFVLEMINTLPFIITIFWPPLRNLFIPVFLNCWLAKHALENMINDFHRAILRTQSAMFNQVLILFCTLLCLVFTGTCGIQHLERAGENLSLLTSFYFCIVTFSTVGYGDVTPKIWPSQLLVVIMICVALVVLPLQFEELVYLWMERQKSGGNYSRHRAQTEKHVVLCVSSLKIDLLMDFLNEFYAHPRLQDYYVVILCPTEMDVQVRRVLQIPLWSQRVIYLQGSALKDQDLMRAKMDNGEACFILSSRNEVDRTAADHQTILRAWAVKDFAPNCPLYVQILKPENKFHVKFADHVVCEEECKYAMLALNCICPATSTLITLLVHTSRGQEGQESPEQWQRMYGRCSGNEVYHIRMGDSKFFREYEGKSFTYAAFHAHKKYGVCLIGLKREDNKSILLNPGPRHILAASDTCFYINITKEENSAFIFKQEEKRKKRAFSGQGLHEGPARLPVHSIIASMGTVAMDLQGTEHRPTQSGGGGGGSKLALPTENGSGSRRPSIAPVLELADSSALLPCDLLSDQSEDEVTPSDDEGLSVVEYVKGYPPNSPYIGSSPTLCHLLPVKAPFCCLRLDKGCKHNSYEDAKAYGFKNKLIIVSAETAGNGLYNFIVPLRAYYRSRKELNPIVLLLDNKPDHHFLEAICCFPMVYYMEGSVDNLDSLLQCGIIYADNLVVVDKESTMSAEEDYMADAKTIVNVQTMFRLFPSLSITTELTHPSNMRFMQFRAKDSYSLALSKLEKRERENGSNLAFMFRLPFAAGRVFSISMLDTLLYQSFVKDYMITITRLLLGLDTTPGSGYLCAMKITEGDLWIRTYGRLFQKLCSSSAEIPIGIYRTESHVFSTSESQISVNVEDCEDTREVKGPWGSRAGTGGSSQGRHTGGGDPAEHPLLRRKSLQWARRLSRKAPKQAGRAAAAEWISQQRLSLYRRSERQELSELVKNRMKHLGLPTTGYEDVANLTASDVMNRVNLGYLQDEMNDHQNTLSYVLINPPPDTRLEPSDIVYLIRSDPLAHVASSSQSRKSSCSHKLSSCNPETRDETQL

For “(S)—N-(2-(2-Cyclopropyl-5-fluoropyridin-4-yl)-5,6-dihydro-4H-pyrrolo[1,2-b]pyrazol-4-yl)-1-methyl-3-(trifluoromethyl)-1H-pyrazole-5-carboxamide [Compound I-154a]”, the IC50 was under 250 nM.
Work on “(rac)-N-(2-(2-Cyclopropylpyridin-4-yl)-4,5,6,7-tetrahydropyrazolo[1,5-a]pyridin-4-yl)-6-(trifluoromethyl)nicotinamide [Compound I-65]” yielded an IC50 of under 250 nM.
